Test results reported in ChEMBL document CHEMBL1201862, “PubChem BioAssay data set” (2004).
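Following 48 hours of exposure in 96-well plates, responses at five concentrations were used to interpolate endpoints linearly. Here, GI50 denotes the concentration required for 50% inhibition of growth.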 Activity calls are given as the source filed them. Rule as the data show it: active = GI50 up to about 1.1 µM and inactive = higher.

What was measured:
Assay in all cases: growth of human tumour cells (NCI), 48 h
[1] = system: 786-0
[2] = system: A498
[3] = system: ACHN
[4] = system: BT-549
[5] = system: CAKI-1
[6] = system: CCRF-CEM
[7] = system: COLO 205
[8] = system: DU-145
[9] = system: EKVX
[10] = system: HCC 2998
[11] = system: HCT-116
[12] = system: HCT-15
[13] = system: HL-60
[14] = system: HOP-62
[15] = system: HT-29
[16] = system: Hs-578T
[17] = system: IGROV-1
[18] = system: K562
[19] = system: KM12
[20] = system: M14
[21] = system: MCF7
[22] = system: MDA-MB-231
[23] = system: MDA-N
[24] = system: MOLT-4
[25] = system: Malme-3M
[26] = system: NCI-H226
[27] = system: NCI-H23
[28] = system: NCI-H460
[29] = system: NCI-H522
[30] = system: NCI/ADR-RES
[31] = system: OVCAR-3
[32] = system: OVCAR-4
[33] = system: OVCAR-5
[34] = system: OVCAR-8
[35] = system: PC-3
[36] = system: RXF 393
[37] = system: SF-268
[38] = system: SF-295
[39] = system: SF-539
[40] = system: SK-MEL-28
[41] = system: SK-MEL-2
[42] = system: SK-MEL-5
[43] = system: SK-OV-3
[44] = system: SN12C
[45] = system: SNB-19
[46] = system: SNB-75
[47] = system: SR
[48] = system: SW-620
[49] = system: T47D
[50] = system: TK-10
[51] = system: UACC-257
[52] = system: UACC-62
[53] = system: UO-31
[54] = system: A549
[55] = system: HOP-92
[56] = system: LOX IMVI
[57] = system: MDA-MB-435
[58] = system: RPMI-8226
[59] = system: U-251

Compound: Cc1ccc(C(=O)Nc2ccc(S(=O)(=O)O)c3cc(S(=O)(=O)O)cc(S(=O)(=O)O)c23)cc1N
- GI50 [1]: > 100 µM (inactive)
- GI50 [2]: > 100 µM (inactive)
- GI50 [3]: > 100 µM (inactive)
- GI50 [4]: > 100 µM (inactive)
- GI50 [5]: > 100 µM (inactive)
- GI50 [6]: > 100 µM (inactive)
- GI50 [7]: > 100 µM (inactive)
- GI50 [8]: > 100 µM (inactive)
- GI50 [9]: > 100 µM (inactive)
- GI50 [10]: > 100 µM (inactive)
- GI50 [11]: > 100 µM (inactive)
- GI50 [12]: > 100 µM
- GI50 [13]: > 100 µM (inactive)
- GI50 [14]: > 100 µM (inactive)
- GI50 [15]: > 100 µM (inactive)
- GI50 [16]: > 100 µM (inactive)
- GI50 [17]: > 100 µM (inactive)
- GI50 [18]: > 100 µM (inactive)
- GI50 [19]: > 100 µM (inactive)
- GI50 [20]: > 100 µM (inactive)
- GI50 [21]: > 100 µM (inactive)
- GI50 [22]: > 100 µM (inactive)
- GI50 [23]: > 100 µM (inactive)
- GI50 [24]: > 100 µM (inactive)
- GI50 [25]: > 100 µM (inactive)
- GI50 [26]: > 100 µM (inactive)
- GI50 [27]: > 100 µM (inactive)
- GI50 [28]: > 100 µM (inactive)
- GI50 [29]: > 100 µM (inactive)
- GI50 [30]: > 100 µM (inactive)
- GI50 [31]: > 100 µM (inactive)
- GI50 [32]: > 100 µM (inactive)
- GI50 [33]: > 100 µM (inactive)
- GI50 [34]: > 100 µM (inactive)
- GI50 [35]: > 100 µM (inactive)
- GI50 [36]: > 100 µM (inactive)
- GI50 [37]: > 100 µM (inactive)
- GI50 [38]: 2.75 µM (inactive)
- GI50 [39]: > 100 µM (inactive)
- GI50 [40]: > 100 µM (inactive)
- GI50 [41]: > 100 µM (inactive)
- GI50 [42]: > 100 µM (inactive)
- GI50 [43]: 91.6 µM (inactive)
- GI50 [44]: > 100 µM (inactive)
- GI50 [45]: > 100 µM (inactive)
- GI50 [46]: > 100 µM (inactive)
- GI50 [47]: > 100 µM (inactive)
- GI50 [48]: > 100 µM (inactive)
- GI50 [49]: > 100 µM (inactive)
- GI50 [50]: > 100 µM (inactive)
- GI50 [51]: > 100 µM (inactive)
- GI50 [52]: > 100 µM (inactive)
- GI50 [53]: > 100 µM (inactive)

Compound: Nc1ccc(-c2nc3ccccc3s2)cc1CO
- GI50 [1]: > 100 µM (inactive)
- GI50 [2]: < 0.01 µM (active)
- GI50 [54]: > 58.7 µM (inactive)
- GI50 [3]: 13.5 µM (inactive)
- GI50 [4]: 47.3 µM (inactive)
- GI50 [5]: 2.9 µM (inactive)
- GI50 [6]: > 51.2 µM (inactive)
- GI50 [7]: > 100 µM (inactive)
- GI50 [8]: > 94.8 µM (inactive)
- GI50 [9]: 7.46 µM (inactive)
- GI50 [10]: > 100 µM (inactive)
- GI50 [11]: 74.6 µM (inactive)
- GI50 [12]: 61.8 µM
- GI50 [13]: 39 µM (inactive)
- GI50 [14]: 31.5 µM (inactive)
- GI50 [55]: > 54.8 µM (inactive)
- GI50 [15]: > 100 µM (inactive)
- GI50 [16]: > 83.6 µM (inactive)
- GI50 [17]: > 68.5 µM (inactive)
- GI50 [18]: 6.05 µM (inactive)
- GI50 [19]: 41.7 µM (inactive)
- GI50 [56]: 84.3 µM (inactive)
- GI50 [20]: 64.6 µM (inactive)
- GI50 [22]: > 70 µM (inactive)
- GI50 [57]: > 87.5 µM (inactive)
- GI50 [23]: > 86.3 µM (inactive)
- GI50 [24]: 16.5 µM (inactive)
- GI50 [25]: > 100 µM (inactive)
- GI50 [26]: < 0.01 µM (active)
- GI50 [27]: 60.5 µM (inactive)
- GI50 [28]: 68.4 µM (inactive)
- GI50 [29]: 52.8 µM (inactive)
- GI50 [30]: > 79.8 µM (inactive)
- GI50 [31]: > 100 µM (inactive)
- GI50 [32]: > 39.2 µM (inactive)
- GI50 [34]: > 77.6 µM (inactive)
- GI50 [35]: 66.8 µM (inactive)
- GI50 [58]: 49.1 µM (inactive)
- GI50 [36]: > 100 µM (inactive)
- GI50 [37]: > 73.5 µM (inactive)
- GI50 [38]: 36.5 µM (inactive)
- GI50 [40]: > 100 µM (inactive)
- GI50 [41]: > 85.7 µM (inactive)
- GI50 [42]: 49.4 µM (inactive)
- GI50 [43]: > 100 µM (inactive)
- GI50 [44]: 45.8 µM (inactive)
- GI50 [45]: 50.6 µM (inactive)
- GI50 [46]: > 100 µM (inactive)
- GI50 [47]: > 84.3 µM (inactive)
- GI50 [48]: > 100 µM (inactive)
- GI50 [49]: 33.2 µM (inactive)
- GI50 [50]: > 100 µM (inactive)
- GI50 [59]: > 76.4 µM (inactive)
- GI50 [51]: > 87.7 µM (inactive)
- GI50 [52]: 6.79 µM (inactive)
- GI50 [53]: 10.5 µM (inactive)

Compound: CCOC(=O)C(OP(=O)(OCC)OCC)C(F)(F)F (stereo not given)
- GI50 [2]: > 100 µM (inactive)
- GI50 [3]: > 100 µM (inactive)
- GI50 [4]: > 100 µM (inactive)
- GI50 [6]: > 100 µM (inactive)
- GI50 [8]: > 100 µM (inactive)
- GI50 [9]: > 100 µM (inactive)
- GI50 [10]: > 100 µM (inactive)
- GI50 [11]: > 100 µM (inactive)
- GI50 [12]: > 100 µM
- GI50 [13]: > 100 µM (inactive)
- GI50 [14]: > 100 µM (inactive)
- GI50 [15]: > 100 µM (inactive)
- GI50 [16]: > 100 µM (inactive)
- GI50 [18]: > 100 µM (inactive)
- GI50 [19]: > 100 µM (inactive)
- GI50 [56]: > 100 µM (inactive)
- GI50 [20]: > 100 µM (inactive)
- GI50 [21]: > 100 µM (inactive)
- GI50 [22]: > 100 µM (inactive)
- GI50 [57]: > 100 µM (inactive)
- GI50 [23]: > 100 µM (inactive)
- GI50 [24]: > 100 µM (inactive)
- GI50 [25]: > 100 µM (inactive)
- GI50 [26]: > 100 µM (inactive)
- GI50 [27]: > 100 µM (inactive)
- GI50 [28]: > 100 µM (inactive)
- GI50 [29]: > 100 µM (inactive)
- GI50 [31]: > 100 µM (inactive)
- GI50 [33]: > 100 µM (inactive)
- GI50 [58]: > 100 µM (inactive)
- GI50 [36]: > 100 µM (inactive)
- GI50 [37]: > 100 µM (inactive)
- GI50 [39]: > 100 µM (inactive)
- GI50 [40]: > 100 µM (inactive)
- GI50 [41]: > 100 µM (inactive)
- GI50 [43]: > 100 µM (inactive)
- GI50 [44]: > 100 µM (inactive)
- GI50 [45]: > 100 µM (inactive)
- GI50 [46]: > 100 µM (inactive)
- GI50 [47]: > 100 µM (inactive)
- GI50 [49]: > 100 µM (inactive)
- GI50 [50]: > 100 µM (inactive)
- GI50 [59]: > 100 µM (inactive)
- GI50 [51]: > 100 µM (inactive)
- GI50 [52]: > 100 µM (inactive)
- GI50 [53]: > 100 µM (inactive)
